Assay: T3 promoter assay cell test (luciferase reporter)
Type: cell-based
Details: Homo sapiens; HepG2 cells, luciferase induction, costimulator retinoic acid, incubation 48 or 72 hours
Method: The activity of the compounds according to the invention can be examined, for example, in vitro by the known T3 promoter assay cell test, described below:
The test is carried out using a stabily transfected human HepG2 hepatocarcinoma cell which expresses a luciferase gene under the control of a thyroid-hormone-regulated promoter. The vector used for transfection carries, upstream of the luciferase gene, a minimal thymidine kinase promoter with a thyroid-hormone-responsive element (TRE) comprising two inverted palindromes of in each case 12 bp and one 8 bp spacer.
For the test, the cell cultures are sown in 96-well plates in Eagle's Minimal Essential Medium, with the following additives: glutamine, tricine, [N-(tris-hydroxymethyl)-methyl)glycine], sodium pyruvate, non-essential amino acids (L-Ala, L-Asn, L-Asp, L-Pro, L-Ser, L-Glu, Gly), insulin, selenium and transferrin. The cultures are grown at 37° C. in a 10% CO2 atmosphere for 48 hours. Serial dilutions of test substance or reference compound (T3, T4) and the costimulator retinoic acid are then added to the test cultures, which are then incubated as above for a further 48 or 72 hours. […] To determine the luciferase, induced by T3 or other substances, the cells are then lyzed by addition of a triton- and luciferin-containing buffer (from Promega) and immediately measured luminometrically. For each compound, the EC50 is calculated. […]

Cc1cc(OCC(=O)O)cc(C)c1Cc1ccc(O)c(S(=O)(=O)c2ccc(F)cc2)c1 [Example 2, (4-{3-[(4-Fluorophenyl)sulphonyl]-4-hydroxybenzyl}-3,5-dimethylphenoxy)acetic acid]
EC50: 2 nM

From patent US6777442B2, “Diphenyl derivatives” (Bayer Aktiengesellschaft, priority 2001, dated 2004)
